According to the supplement of paper PMC10307832:

What was measured:
Experiment in all cases: relative viability (nuclei count vs DMSO), 5 days (fraction); higher = more cells survive
ALW-II-49-7 + Phenformin = compound: Cc1ccc(C(=O)Nc2cccc(C(F)(F)F)c2)cc1Nc1cncc(C(N)=O)c1 [ALW-II-49-7] + N=C(N)NC(=N)NCCc1ccccc1 [Phenformin] (partner 250 µM)
Summary of the method: (§1)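 Five library-drug doses in √10 steps were combined with a fixed anchor-drug dose, or a single drug was given alone, by pin tool to lung cancer cell lines in 1536-well plates the day after seeding. Nuclei were stained and counted after 5 days. Relative viability is the nuclei count in treated wells over that in vehicle wells, taken as the median of duplicate plates.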

ALW-II-49-7 + Navitoclax = compound: Cc1ccc(C(=O)Nc2cccc(C(F)(F)F)c2)cc1Nc1cncc(C(N)=O)c1 [ALW-II-49-7] + CC1(C)CCC(c2ccc(Cl)cc2)=C(CN2CCN(c3ccc(C(=O)NS(=O)(=O)c4ccc(N[C@H](CCN5CCOCC5)CSc5ccccc5)c(S(=O)(=O)C(F)(F)F)c4)cc3)CC2)C1 [Navitoclax] (partner 0.5 µM)
Summary of the method: as §1

XMD13-2 + Navitoclax = compound: C1CC1C(=O)NC2=NNC3=C2C=CC(=C3)C4=CC(=CC=C4)C(=O)NC5CC5 [XMD13-2] + CC1(C)CCC(c2ccc(Cl)cc2)=C(CN2CCN(c3ccc(C(=O)NS(=O)(=O)c4ccc(N[C@H](CCN5CCOCC5)CSc5ccccc5)c(S(=O)(=O)C(F)(F)F)c4)cc3)CC2)C1 [Navitoclax] (partner 0.5 µM)
Summary of the method: as §1

ALW-II-49-7 + Linsitinib = compound: Cc1ccc(C(=O)Nc2cccc(C(F)(F)F)c2)cc1Nc1cncc(C(N)=O)c1 [ALW-II-49-7] + C[C@]1(O)C[C@@H](c2nc(-c3ccc4ccc(-c5ccccc5)nc4c3)c3c(N)nccn32)C1 [Linsitinib] (partner 1 µM)
Summary of the method: as §1

Cell Line	relative viability (ALW-II-49-7 + Phenformin; first compound 0.08 µM)	relative viability (ALW-II-49-7 + Phenformin; first compound 0.253 µM)	relative viability (ALW-II-49-7 + Phenformin; first compound 0.8 µM)	relative viability (ALW-II-49-7 + Phenformin; first compound 2.53 µM)	relative viability (ALW-II-49-7 + Phenformin; first compound 8 µM)	relative viability (ALW-II-49-7 + Navitoclax; first compound 0.08 µM)	relative viability (ALW-II-49-7 + Navitoclax; first compound 0.253 µM)	relative viability (ALW-II-49-7 + Navitoclax; first compound 0.8 µM)	relative viability (ALW-II-49-7 + Navitoclax; first compound 2.53 µM)	relative viability (ALW-II-49-7 + Navitoclax; first compound 8 µM)	relative viability (XMD13-2 + Navitoclax; first compound 0.05 µM)	relative viability (XMD13-2 + Navitoclax; first compound 0.1581 µM)	relative viability (XMD13-2 + Navitoclax; first compound 0.5 µM)	relative viability (XMD13-2 + Navitoclax; first compound 1.581 µM)	relative viability (XMD13-2 + Navitoclax; first compound 5 µM)	relative viability (ALW-II-49-7 + Linsitinib; first compound 0.08 µM)	relative viability (ALW-II-49-7 + Linsitinib; first compound 0.253 µM)	relative viability (ALW-II-49-7 + Linsitinib; first compound 0.8 µM)	relative viability (ALW-II-49-7 + Linsitinib; first compound 2.53 µM)	relative viability (ALW-II-49-7 + Linsitinib; first compound 8 µM)
NCI-H1993	0.535	0.546	0.542	0.544	0.502	0.85	0.927	0.904	0.785	1.08	0.911	0.834	0.884	0.845	0.673	0.753	0.691	0.737	0.792	0.878
NCI-H520	0.57	0.604	0.624	0.681	0.562	1.04	1.23	–	1.03	1.01	1.17	1.2	1.08	1.01	0.501	0.779	1.04	–	1.16	0.951
NCI-H2085	0.754	0.639	0.677	0.889	0.693	1.13	1.15	1.14	1.18	1.08	1.25	1.14	1.16	1.18	1.1	0.669	0.866	0.843	0.84	0.942
NCI-H1651	0.345	0.312	0.376	0.317	0.321	1.09	0.969	1.13	0.921	1.06	1.28	1.04	1	1.2	0.947	0.928	1.02	0.973	0.884	0.996
RERF-LC-KJ	0.419	0.456	0.414	0.373	0.397	0.876	1.27	0.938	1.05	0.866	1.14	1.03	0.674	1	0.733	0.884	0.898	0.873	0.905	0.888
NCI-H1755	0.584	0.627	0.612	0.55	0.405	0.976	1.03	0.976	0.884	0.759	1.03	0.985	1.07	1.01	0.986	1.05	1.14	1.01	0.978	0.855
SK-MES-1	0.644	0.637	0.625	0.577	0.512	1.03	1.34	1.15	0.961	0.647	1.26	1.32	1.21	1.24	1.2	1.03	1.14	1.13	0.952	0.901
NCI-H2126	0.507	0.549	0.505	0.515	0.485	0.86	0.934	0.855	0.877	0.862	0.909	0.867	0.831	0.813	0.845	0.656	0.733	0.746	0.7	0.717
EPLC-272H	0.29	–	0.23	0.342	0.303	1.16	1.03	1.04	1.06	1.19	1.23	1.13	1.26	0.814	0.649	0.954	0.922	1.15	1.26	1.18
NCI-H1975	0.393	0.461	0.39	0.415	0.412	1.06	1.05	0.993	0.919	0.998	1.17	1.28	1.01	1.02	1.18	1.01	1	0.892	0.863	0.956
NCI-H3122	0.394	0.366	0.381	–	0.302	1.06	1.06	1.07	1.09	1.05	0.996	1.02	1.02	1.01	1.01	1.02	0.934	1.1	1.18	1.13
COR-L 105	0.423	0.48	0.471	0.466	0.47	0.812	0.669	0.767	0.721	0.655	0.818	0.761	1.25	0.684	0.872	0.884	0.848	0.824	0.745	0.752
BEN	0.33	0.264	0.25	0.233	0.287	0.111	0.0965	0.0694	–	0.0797	0.186	0.0776	0.0786	0.0451	0.0694	0.69	0.865	0.99	–	0.936
NCI-H1915	0.333	0.32	0.364	0.353	0.342	0.771	0.823	0.733	0.764	0.705	0.801	0.781	0.806	0.835	0.853	1.13	1.13	1.09	1	0.825
NCI-H2009	0.463	0.49	0.444	0.334	0.283	1.1	1.16	1.12	0.904	0.983	1.22	1.15	1.22	1.14	1.21	1.21	1.12	1.09	1.02	1
COR-L23	0.461	0.448	0.426	0.462	0.363	1.14	0.954	1.04	0.805	1.27	1.03	1.07	1.18	1.11	0.899	0.947	0.829	0.769	0.953	0.957

Cell Line	relative viability (ALW-II-49-7 + Phenformin; first compound 0.08 µM)	relative viability (ALW-II-49-7 + Phenformin; first compound 0.253 µM)	relative viability (ALW-II-49-7 + Phenformin; first compound 0.8 µM)	relative viability (ALW-II-49-7 + Phenformin; first compound 2.53 µM)	relative viability (ALW-II-49-7 + Phenformin; first compound 8 µM)	relative viability (ALW-II-49-7 + Navitoclax; first compound 0.08 µM)	relative viability (ALW-II-49-7 + Navitoclax; first compound 0.253 µM)	relative viability (ALW-II-49-7 + Navitoclax; first compound 0.8 µM)	relative viability (ALW-II-49-7 + Navitoclax; first compound 2.53 µM)	relative viability (ALW-II-49-7 + Navitoclax; first compound 8 µM)	relative viability (XMD13-2 + Navitoclax; first compound 0.05 µM)	relative viability (XMD13-2 + Navitoclax; first compound 0.1581 µM)	relative viability (XMD13-2 + Navitoclax; first compound 0.5 µM)	relative viability (XMD13-2 + Navitoclax; first compound 1.581 µM)	relative viability (XMD13-2 + Navitoclax; first compound 5 µM)	relative viability (ALW-II-49-7 + Linsitinib; first compound 0.08 µM)	relative viability (ALW-II-49-7 + Linsitinib; first compound 0.253 µM)	relative viability (ALW-II-49-7 + Linsitinib; first compound 0.8 µM)	relative viability (ALW-II-49-7 + Linsitinib; first compound 2.53 µM)	relative viability (ALW-II-49-7 + Linsitinib; first compound 8 µM)
NCI-H460	0.425	0.414	0.561	0.559	0.372	1.17	1.08	1.11	1.25	1.09	1.34	1.23	1.28	1.02	1.2	0.464	0.667	0.766	0.566	0.566
HCC-827	0.403	0.388	0.399	0.413	0.363	0.981	1.05	1.08	1.01	0.987	0.962	1.02	1	0.978	0.898	0.94	1.06	0.962	0.981	1.08
NCI-H322M	0.684	0.697	0.711	0.777	0.612	1.22	1.31	1.24	1.26	1.09	1.19	1.19	1.44	1.15	1.14	0.846	0.902	0.909	0.836	0.673
NCI-H1666	0.565	0.568	0.58	0.703	0.653	0.879	1.03	1.03	0.978	1	0.886	1.03	0.881	0.905	0.92	0.81	0.794	0.81	0.842	0.781
NCI-H1793	0.41	0.35	0.258	0.302	0.297	0.268	0.505	0.463	0.363	0.463	0.48	0.394	0.485	0.426	0.509	0.864	0.723	0.84	0.868	0.863
NCI-H1437	0.266	0.297	0.301	0.297	0.263	1.11	1.17	–	1.07	1.06	1.12	1.09	1.09	1.05	1.09	0.935	1.04	–	0.942	0.754
NCI-H1792	–	–	0.228	0.147	0.258	0.351	0.438	0.725	0.654	0.327	0.746	0.591	0.715	0.491	0.886	0.402	0.338	0.421	0.321	0.371
NCI-H1355	0.457	0.4	0.4	0.443	0.379	0.93	0.988	0.981	0.715	0.802	0.971	0.941	0.904	0.899	0.89	0.731	0.872	0.797	0.752	0.758
SK-LU-1	0.445	0.583	0.519	0.445	0.435	1.09	0.769	1.2	0.585	0.474	0.915	0.832	0.664	0.803	0.82	1.03	1.22	1.19	0.953	0.793
NCI-H2228	0.286	0.215	0.328	0.251	0.334	1.4	0.809	0.628	0.838	0.84	1.15	0.949	0.643	0.668	0.841	1.17	0.677	0.8	0.644	0.611
NCI-H2347	0.455	0.334	0.329	0.26	0.297	0.899	0.807	0.721	0.44	0.685	0.726	0.827	0.919	0.786	0.981	1	0.974	1.08	0.868	0.737
A-427	0.216	0.305	0.316	0.357	0.27	1.07	0.942	0.998	0.994	1.05	1.01	0.961	1.09	0.87	0.989	1.17	1.15	1.15	1.12	1.18
HCC-366	0.649	0.623	0.541	0.622	0.611	1.04	1.29	1.08	1.11	1.11	1.12	1.07	1.13	1.06	1.19	0.68	0.636	0.698	0.682	0.791
HCC-78	0.718	0.745	–	0.677	0.633	1.01	0.682	0.787	0.744	0.641	0.851	0.641	0.817	0.582	0.671	0.485	0.473	0.609	0.5	0.487
PC-14	0.562	0.637	0.528	0.406	0.546	1.04	0.92	0.923	0.911	0.86	0.972	1.1	0.999	0.973	1	0.933	0.821	0.933	0.979	0.94
NCI-H2087	0.526	0.459	0.488	0.467	0.445	1.12	0.937	0.838	0.907	0.949	1.01	1.13	1.02	0.968	0.959	1.14	0.962	0.871	0.896	0.919
